Experimental data from PMC11079024, “Identification of a family of species-selective complex I inhibitors as potential anthelmintics” (Nature Communications, 2024).
Where two headings read alike, the source gives them in different places.

Assays:
[1] = tested on: ben-1 mutant (ECA882) C. elegans; test: microbe, parasite or virus in culture; details: Caenorhabditis elegans; for viability at 1 µM / viability at 2 µM / viability at 3.9 µM / viability at 15.6 µM / viability at 31.3 µM / viability at 62.5 µM / viability at 125 µM / viability at 250 µM / viability at 500 µM / viability at 1000 µM: read-out: C. elegans ben-1(e1880) development/viability
Procedure, shortened: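 L1 larvae (~2 worms/μL in M9) in liquid NGM with 2-fold concentrated E. coli HB101, compound at 1% DMSO, 6 days at 20 °C shaking 165 rpm. Well images scored as summed worm-associated pixels, normalized to DMSO controls; relative viability averaged over at least three biological replicates.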

[2] = tested on: L1 wild-type C. elegans; details: for Relative Motility: worm motility 3 hours after removal of KCN, relative to DMSO controls, single biological replicate; for KCN survival assay value relative to DMSO control, Mean: mean of replicates
[3] = in vitro; details: human; for viability at 2 days, 3.13 µM / viability at 2 days, 6.25 µM / viability at 2 days, 12.5 µM / viability at 2 days, 25 µM / viability at 2 days, 50 µM / viability at 2 days, 100 µM: HEK293 cells (Flp-In-293)
[4] = tested on: L1 wild-type C. elegans; test: microbe, parasite or virus in culture; details: Caenorhabditis elegans
[5] = read-out: C. elegans (ben-1) Development & Viability Assay LC50
[6] = read-out: C. elegans ben-1 log10 LC50 (converted)
[7] = 50 μM, KCN survival assay, hit = relative motility below 0.25
[8] = Dose 0.2 µM, mean of at least three biological replicates
[9] = HEK293 Cell Viability Assay LC50, HEK293 cells, estimated from fitted dose-response curves, mean of at least two biological replicates
[10] = read-out: C. elegans KCN Survival Assay LC50, estimated from fitted dose-response curves, mean of at least two biological replicates
[11] = 50 μM compound, hit = relative motility below 0.25 3 hours after removal of KCN
[12] = read-out: C. elegans ben-1 LC50
[13] = 50 μM, hit = relative motility below 0.25 3 hours after removal of KCN

SMILES | LC50 [1, 5] [µM] | viability at 15.6 µM [1] [%] | viability at 31.3 µM [1] [%] | viability at 62.5 µM [1] [%] | viability at 125 µM [1] [%] | viability at 250 µM [1] [%] | viability at 500 µM [1] [%] | LC50 [1, 6] [µM] | Screen "Hit" [2, 7] | C. elegans KCN Survival [2, 8] | C. elegans KCN Survival ([2]; Dose 0.39 µM) | C. elegans KCN Survival ([2]; Dose 1.56 µM) | C. elegans KCN Survival ([2]; Dose 3.13 µM) | C. elegans KCN Survival ([2]; Dose 6.25 µM) | C. elegans KCN Survival ([2]; Dose 12.5 µM) | C. elegans KCN Survival ([2]; Dose 25 µM) | C. elegans KCN Survival ([2]; Dose 50 µM) | C. elegans KCN Survival ([2]; Dose 100 µM) | CC50 at 2 days [3, 9] [µM] | LC50 [4, 10] [µM] | further results
Clc1ccc(SCCCCn2cnc3ccccc32)cc1 [Compound 7925515] | 40.8 | 84.7 | 65.4 | 25 | 5 | 3.7 | 3.1 | 40.8 | Y (hits were identified as compounds that reduced relative motility below 0.25 (75% reduction)) | 0.966 | 1.005 | 0.967 | 0.917 | 0.704 | 0.109 | 0.129 | 0.146 | 0.182 | 57.3 | 6.74 | viability at 1 µM [1]: 92.2%; viability at 2 µM [1]: 97%; viability at 3.9 µM [1]: 94.8%; viability at 1000 µM [1]: 1%; viability at 2 days, 3.13 µM ([3]; HEK293 viability): 83.6%; viability at 2 days, 6.25 µM ([3]; HEK293 viability, Dose 6.25 µM): 92.4%; viability at 2 days, 12.5 µM ([3]; HEK293 viability): 94.2%; viability at 2 days, 25 µM ([3]; HEK293 viability): 96.8%; viability at 2 days, 50 µM ([3]; HEK293 viability): 55.5%; viability at 2 days, 100 µM ([3]; HEK293 viability): 12.7%
Brc1ccc(Cn2cnc3ccccc32)cc1 [Compound 5542661] | 41.4 |  |  |  |  |  |  | 41.4 | Y (hits were identified as compounds that reduced relative motility below 0.25 (75% reduction)) |  |  |  |  |  |  |  |  |  |  | 7.75 | CC50 at 2 days [3]: > 100 µM
Cc1nc2ccccc2n1Cc1ccc(Cl)cc1 [STK697993] | 40.1 |  |  |  |  |  |  | 40.1 |  |  |  |  |  |  |  |  |  |  |  |  | Screen "Hit" [2, 11]: Y (hits were identified as compounds that reduced relative motility below 0.25 (75% reduction)); Relative Motility ([2]; 50 μM compound): 0.000; KCN survival assay value relative to DMSO control, Mean ([2]; dose 3.1 µM): 1.037; KCN survival assay value relative to DMSO control, Mean ([2]; dose 6.3 µM): 1.001; KCN survival assay value relative to DMSO control, Mean ([2]; dose 12.5 µM): 0.717; KCN survival assay value relative to DMSO control, Mean ([2]; dose 25 µM): 0.059; KCN survival assay value relative to DMSO control, Mean ([2]; dose 50 µM): 0.046; CC50 at 2 days ([3]; HEK293 Cell Viability Assay LC50): > 100 µM; LC50 ([4]; read-out: C. elegans KCN Survival Assay LC50): 8.18 µM
Nc1nc2ccccc2n1Cc1ccc(Cl)cc1 [Compound 5652765] | 71.7 | 89.9 | 76.1 | 63.7 | 13.8 | 7.4 | 6.3 | 71.6 | Y (hits were identified as compounds that reduced relative motility below 0.25 (75% reduction)) | 0.973 | 1.034 | 1.067 | 1.051 | 1.001 | 0.758 | 0.271 | 0.140 | 0.216 | 58.9 | 16.9 | viability at 1 µM [1]: 98%; viability at 2 µM [1]: 94.6%; viability at 3.9 µM [1]: 92.8%; viability at 2 days, 3.13 µM ([3]; HEK293 viability): 94.2%; viability at 2 days, 6.25 µM ([3]; HEK293 viability, Dose 6.25 µM): 94%; viability at 2 days, 12.5 µM ([3]; HEK293 viability): 92.9%; viability at 2 days, 25 µM ([3]; HEK293 viability): 94.5%; viability at 2 days, 50 µM ([3]; HEK293 viability): 62.3%; viability at 2 days, 100 µM ([3]; HEK293 viability): 10%
CCCOc1ccc(Cn2cnc3ccccc32)cc1 [Compound 7355741] | 85.3 |  |  |  |  |  |  | 85.3 | Y (hits were identified as compounds that reduced relative motility below 0.25 (75% reduction)) | 0.923 | 0.831 | 0.783 | 1.007 | 0.620 | 0.122 | 0.000 | 0.000 | 0.000 | 76.2 | 7 | viability at 2 days, 3.13 µM ([3]; HEK293 viability): 99.8%; viability at 2 days, 6.25 µM ([3]; HEK293 viability, Dose 6.25 µM): 100%; viability at 2 days, 12.5 µM ([3]; HEK293 viability): 100%; viability at 2 days, 25 µM ([3]; HEK293 viability): 100%; viability at 2 days, 50 µM ([3]; HEK293 viability): 78.9%; viability at 2 days, 100 µM ([3]; HEK293 viability): 30.3%
Cc1ccccc1OCCCCn1cnc2ccccc21 [Compound 7732524] | 58.5 | 100 | 97 | 42.4 | 3.7 | 3.3 | 1.6 | 58.5 | Y (hits were identified as compounds that reduced relative motility below 0.25 (75% reduction)) | 1.002 | 0.963 | 0.887 | 0.828 | 0.509 | 0.007 | 0.000 | 0.000 | 0.000 | 49.9 | 6.37 | viability at 1000 µM [1]: 1.3%; viability at 2 days, 3.13 µM ([3]; HEK293 viability): 100%; viability at 2 days, 6.25 µM ([3]; HEK293 viability, Dose 6.25 µM): 100%; viability at 2 days, 12.5 µM ([3]; HEK293 viability): 100%; viability at 2 days, 25 µM ([3]; HEK293 viability): 93.2%; viability at 2 days, 50 µM ([3]; HEK293 viability): 48.1%; viability at 2 days, 100 µM ([3]; HEK293 viability): 13.7%
Cc1ccc2nc(C(C)c3ccc(CC(C)C)cc3)[nH]c2c1 (stereo not shown) [STL482096] | > 1000 |  |  |  |  |  |  | > 500 |  |  |  |  |  |  |  |  |  |  |  | 6.76 | LC50 [1, 12]: > 500 µM; Screen "Hit" [2, 11]: Y (hits were identified as compounds that reduced relative motility below 0.25 (75% reduction)); CC50 at 2 days [3]: < 12.5 µM
Cc1ccccc1OCCCn1c(C)nc2ccccc21 [Compound 7916923] | 142 | 96 | 89.5 | 86.2 | 67.3 | 2.7 | 2.9 | 143 |  | 0.930 | 1.083 | 1.052 | 0.985 | 0.888 | 0.491 | 0.124 | 0.136 | 0.168 |  | 12.1 | viability at 1 µM [1]: 95.8%; viability at 2 µM [1]: 94.9%; viability at 3.9 µM [1]: 93.4%; viability at 1000 µM [1]: 2.3%; Screen "Hit" [2, 13]: Y (hits were identified as compounds that reduced relative motility below 0.25 (75% reduction)); CC50 at 2 days [3]: 45.5 µM; viability at 2 days, 3.13 µM ([3]; HEK293 viability): 84.6%; viability at 2 days, 12.5 µM ([3]; HEK293 viability): 95.2%; viability at 2 days, 25 µM ([3]; HEK293 viability): 73.1%; viability at 2 days, 50 µM ([3]; HEK293 viability): 41.6%; viability at 2 days, 100 µM ([3]; HEK293 viability): 9.6%; viability ([3]; HEK293 viability, Dose 6.25 µM): 94.9%
Cc1nc2ccccc2n1Cc1ccc(C(C)C)cc1 [Compound 7353551] | 91.5 |  |  |  |  |  |  | 91.6 |  |  |  |  |  |  |  |  |  |  | 46.2 | 7 | Screen "Hit" [2, 11]: Y (hits were identified as compounds that reduced relative motility below 0.25 (75% reduction))
Cc1ccc(Cn2c(C)nc3ccccc32)cc1 [Compound 5651984] | 108 |  |  |  |  |  |  | 108 | Y (hits were identified as compounds that reduced relative motility below 0.25 (75% reduction)) |  |  |  |  |  |  |  |  |  | 95.4 | 7.24 | 
CCCn1c(COc2ccc(C)cc2)nc2ccccc21 [Compound 6944471] | > 1000 | 98 | 100 | 100 | 100 | 100 | 62.1 | > 500 |  | 0.888 | 0.949 | 1.451 | 0.820 | 0.671 | 0.270 | 0.341 | 0.000 | 0.000 |  | 10.6 | viability at 1000 µM [1]: 100%; LC50 [1, 12]: > 500 µM; Screen "Hit" [2, 13]: Y (hits were identified as compounds that reduced relative motility below 0.25 (75% reduction)); Relative Motility ([2]; 50 μM): 0.170
